Consider 21 molecules from US12692249B2, “WDR5 inhibitors and modulators” (Vanderbilt University, priority 2019, dated 2026).

Assay [1] has as its system MV4:11 human cancer cell lines. The experiment in a line: Cellular viability / anti-proliferative assay, CellTiter-Glo, 5 day protocol. It counts as cell-based. The following applies: Homo sapiens, MV4-11, 120 h, MV4:11 cells; 5 day incubation; CellTiter-Glo; mean of at least two replicates; read-out: GI50 on cellular proliferation of MV4:11 human cancer cell lines. In outline: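 Luminescent ATP-based viability (CellTiter-Glo) after a 5-day exposure gave GI50 via sigmoidal fitting, averaged over two or more replicates. Compounds spanned 22 two-fold steps down from 30 μM at 0.3% DMSO, on 200 MV-4-11 cells per well grown in IMDM plus 10% FBS.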

The next assay deals with WDR5 (Homo sapiens, UniProt P61964). Kind of assay: TR-FRET competition binding assay, displacement of 10mer-Thr-FAM MLL peptide probe from His-tagged WDR5. Particulars: WDR5-His tag (residues 24-334) 2 nM; 10mer-Thr-FAM 150 nM; 60 min, room temperature; read-out: Ki for Inhibition of WDR5 by TR-FRET assay. As for the experimental part:
Time Resolved-Fluorescence Energy Transfer Competition Assay […] Excess 10mer-Thr-FAM probe was utilized with His-tagged WDR5 in conjunction with a commercial anti-His antibody containing a Terbium label. The LanthaScreenTM Elite Tb-anti-HIS Antibody from ThermoFisher Scientific was used for this purpose. […] The 10mer-Thr-FAM probe when bound to WDR5 will undergo a FRET interaction with the Tb-anti-HIS and emit at 520 nm. […] WDR[…] 10[…] used at 150 nM. […] A source plate is prepared using an Echo Liquid Handler, which distributes the compounds to the assay plate (white, flat-bottom; OptiPlate) in a 10-point, 5-fold dilution schemes with a top concentration of 5 μM, in a final volume of 20 μL. […] The final DMSO concentration in each well of the assay plate is 1% or lower. The plate is covered, shielded from light, and incubated for 60 minutes at room temperature with rocking. 10mer-Thr-FAM and Anti-His terbium antibody fluorescence is then measured on a Biotek Cytation 3 at excitation wavelength of 340 nm, and emission wavelengths of 495 nm and 520 nm. […] TR-FRET signal is plotted and IC50 and Ki values are calculated according to the formula of Wang Z. FEBS Lett (1996) 3, 245. Ki=[I]50/([L]50/Kd+[P]0/Kd+1) where [I]50 is the concentration of the free inhibitor at 50% inhibition, [L]50 is the concentration of the free labeled ligand at 50% inhibition, [P]0 is the concentration of the free protein at 0% inhibition, Kd represents the dissociation constant of the FITC-MLL or 10mer-Thr-FAM probe for WDR5. Total fluorescence is also measured, to rule out compounds that are inherently fluorescent or able to act as quenchers in the assay. TR-FRET Binding Assay
In general terms: Time-resolved FRET reads energy transfer from a long-lived donor to a nearby acceptor.

Regarding `CCn1cc(-c2cc(Cn3ccnc3C)cc3c2CCN(c2cccc4ncc(OC)cc24)C3=O)c(C(F)(F)F)n1` [Example 50, 5-(1-Ethyl-3-(trifluoromethyl)-1H-pyrazol-4-yl)-2-(3-methoxyquinolin-5-yl)-7-((2-methyl-1H-imidazol-1-yl)methyl)-3,4-dihydroisoquinolin-1(2H)-one], the GI50 in assay [1] is 22 nM. For the same molecule, the Ki (commonly the dissociation constant of the complex between target and ligand, obtained from inhibition or displacement) on WDR5 is less than 0.02 nM.
Taken in the same sequence, the figures for `CCn1cc(-c2cc(Cn3ccnc3C)cc3c2CCN(c2cc(C)nc4ccc(OC)cc24)C3=O)c(C(F)(F)F)n1` [Example 51, 5-(1-Ethyl-3-(trifluoromethyl)-1H-pyrazol-4-yl)-2-(6-methoxy-2-methylquinolin-4-yl)-7-((2-methyl-1H-imidazol-1-yl)methyl)-3,4-dihydroisoquinolin-1(2H)-one] were less than 20 nM and less than 0.02 nM.
For `CCn1cc(-c2cc(Cn3ccnc3)cc3c2CCN(c2cccc4ncc(OC)cc24)C3=O)c(C(F)(F)F)n1` [Example 52, 7-((1H-Imidazol-1-yl)methyl)-5-(1-ethyl-3-(trifluoromethyl)-1H-pyrazol-4-yl)-2-(3-methoxyquinolin-5-yl)-3,4-dihydroisoquinolin-1(2H)-one], in that order: 62 nM and 0.028 nM.
In the case of `CCn1cc(-c2cc(Cn3ccnc3)cc3c2CCN(c2cc(C)nc4ccc(OC)cc24)C3=O)c(C(F)(F)F)n1` [Example 53, 7-((1H-Imidazol-1-yl)methyl)-5-(1-ethyl-3-(trifluoromethyl)-1H-pyrazol-4-yl)-2-(6-methoxy-2-methylquinolin-4-yl)-3,4-dihydroisoquinolin-1(2H)-one], the GI50 in assay [1] was 59 nM. For the same molecule, on WDR5, the inhibition constant Ki was less than 0.02 nM.
For `CCn1cc(-c2cc(Cn3ccnc3)cc3c2CCN(c2cncc4ccc(C)cc24)C3=O)c(C(F)(F)F)n1` [Example 54, 7-((1H-Imidazol-1-yl)methyl)-5-(1-ethyl-3-(trifluoromethyl)-1H-pyrazol-4-yl)-6′-methyl-3,4-dihydro-1H-[2,4′-biisoquinolin]-1-one], in that order: 71 nM and 0.028 nM.
Taken in the same sequence, the figures for `Cc1ccc2cncc(N3CCc4c(cc(Cc5cnc[nH]5)cc4-c4cn(C)nc4C(F)(F)F)C3=O)c2c1` [Example 55, 7-((1H-imidazol-5-yl)methyl)-6′-methyl-5-(1-methyl-3-(trifluoromethyl)-1H-pyrazol-4-yl)-3,4-dihydro-1H-[2,4′-biisoquinolin]-1-one] were 59 nM and less than 0.02 nM.
For `Cc1ccc2cncc(N3CCc4c(cc(Cc5ncc[nH]5)cc4-c4cn(C)nc4C(F)(F)F)C3=O)c2c1` [Example 56, 7-((1H-Imidazol-2-yl)methyl)-6′-methyl-5-(1-methyl-3-(trifluoromethyl)-1H-pyrazol-4-yl)-3,4-dihydro-1H-[2,4′-biisoquinolin]-1-one], in that order: 97 nM and 0.031 nM.
Turning to `Cc1ccc2cncc(N3CCc4c(cc(C(O)c5cn(C)cn5)cc4-c4cn(C)nc4C(F)(F)F)C3=O)c2c1` (stereo not drawn) [Example 57, 7-(Hydroxy(1-methyl-1H-imidazol-4-yl)methyl)-6′-methyl-5-(1-methyl-3-(trifluoromethyl)-1H-pyrazol-4-yl)-3,4-dihydro-1H-[2,4′-biisoquinolin]-1-one], in assay [1], the GI50 is 29000 nM. Also, the inhibitory constant (Ki) on WDR5 stood at 27 nM.
Take `Cc1ccc2cncc(N3CCc4c(cc(Cc5cn(C)cn5)cc4-c4cn(C)nc4C(F)(F)F)C3=O)c2c1` [Example 58, 6′-Methyl-7-((1-methyl-1H-imidazol-4-yl)methyl)-5-(1-methyl-3-(trifluoromethyl)-1H-pyrazol-4-yl)-3,4-dihydro-1H-[2,4′-biisoquinolin]-1-one]: the GI50 in assay [1] worked out at 191 nM. Moreover, the Ki at WDR5 is 0.025 nM.
For `Cc1ccc2cncc(N3CCc4c(cc(Cc5ccncc5)cc4-c4cn(C)nc4C(F)(F)F)C3=O)c2c1` [Example 59, 6′-Methyl-5-(1-methyl-3-(trifluoromethyl)-1H-pyrazol-4-yl)-7-(pyridin-4-ylmethyl)-3,4-dihydro-1H-[2,4′-biisoquinolin]-1-one], in that order: 4380 nM and 1.4 nM.
For `Cc1nccn1Cc1cc2c(c(-c3cn(C)nc3C(F)(F)F)c1)CCN(C1CCCc3ccc(Br)cc31)C2=O` (stereo not drawn) [Example 60], the GI50 in assay [1] turned out to be 38 nM. The Ki at WDR5 stood at 0.023 nM.
For `Cc1nccn1Cc1cc2c(c(-c3cn(C)nc3C(F)(F)F)c1)CCN(C1CCOc3ccc(Br)cc31)C2=O` (stereo not drawn) [Example 61, 2-(6-Bromochroman-4-yl)-7-((2-methyl-1H-imidazol-1-yl)methyl)-5-(1-methyl-3-(trifluoromethyl)-1H-pyrazol-4-yl)-3,4-dihydroisoquinolin-1(2H)-one], in that order: 31 nM and 0.052 nM.
Turning to `Cc1ccc2c(c1)C(N1CCc3c(cc(Cn4ccnc4C)cc3-c3cn(C)nc3C(F)(F)F)C1=O)CCO2` (stereo not drawn) [Example 62, 7-((2-Methyl-1H-imidazol-1-yl)methyl)-5-(1-methyl-3-(trifluoromethyl)-1H-pyrazol-4-yl)-2-(6-methylchroman-4-yl)-3,4-dihydroisoquinolin-1(2H)-one], the GI50 in assay [1] was determined as 25 nM. The Ki on WDR5 turned out to be 0.028 nM.
Taken in the same sequence, the figures for `Cc1nccn1Cc1cc2c(c(-c3cn(C)nc3C(F)(F)F)c1)CCN(C1CCOc3ccc(C4CC4)cc31)C2=O` (stereo not drawn) [Example 63, 2-(6-Cyclopropylchroman-4-yl)-7-((2-methyl-1H-imidazol-1-yl)methyl)-5-(1-methyl-3-(trifluoromethyl)-1H-pyrazol-4-yl)-3,4-dihydroisoquinolin-1(2H)-one] were 87 nM and 0.068 nM.
Taken in the same sequence, the figures for `Cc1nccn1Cc1cc2c(c(-c3cn(C)nc3C(F)(F)F)c1)CCN(C1CCCc3ncccc31)C2=O` (stereo not drawn) [Example 64, 7-((2-Methyl-1H-imidazol-1-yl)methyl)-5-(1-methyl-3-(trifluoromethyl)-1H-pyrazol-4-yl)-2-(5,6,7,8-tetrahydroquinolin-5-yl)-3,4-dihydroisoquinolin-1(2H)-one] were 284 nM and 0.042 nM.
Taken in the same sequence, the figures for `COc1cnc2c(c1)C(N1CCc3c(cc(Cn4ccnc4C)cc3-c3cn(C)nc3C(F)(F)F)C1=O)CCC2` (stereo not drawn) [Example 65, 2-(3-Methoxy-5,6,7,8-tetrahydroquinolin-5-yl)-7-((2-methyl-1H-imidazol-1-yl)methyl)-5-(1-methyl-3-(trifluoromethyl)-1H-pyrazol-4-yl)-3,4-dihydroisoquinolin-1(2H)-one] were less than 20 nM and less than 0.02 nM.
With `COc1ccc2c(c1)C(N1CCc3c(cc(Cn4ccnc4)cc3-c3cn(C)nc3C(F)(F)F)C1=O)CCC2` (stereo not drawn) [Example 66, 7-((1H-Imidazol-1-yl)methyl)-2-(7-methoxy-1,2,3,4-tetrahydronaphthalen-1-yl)-5-(1-methyl-3-(trifluoromethyl)-1H-pyrazol-4-yl)-3,4-dihydroisoquinolin-1(2H)-one], the GI50 in assay [1] came out at 84 nM. In addition, the Ki at WDR5 is 0.062 nM.
As to `COc1ccc2c(c1)C(N1CCc3c(cc(Cn4ccnc4)cc3-c3cn(C)nc3C(F)(F)F)C1=O)CCO2` (stereo not drawn) [Example 67, 7-((1H-Imidazol-1-yl)methyl)-2-(6-methoxychroman-4-yl)-5-(1-methyl-3-(trifluoromethyl)-1H-pyrazol-4-yl)-3,4-dihydroisoquinolin-1(2H)-one], the GI50 in assay [1] worked out at 35 nM. For the same molecule, on WDR5, the Ki came to 0.062 nM.
For `COc1cnc2c(c1)[C@@H](N1CCc3c(cc(Cn4ccnc4C)cc3-c3cn(C)nc3C(F)(F)F)C1=O)CCC2` [Example 68, (S)-2-(3-Methoxy-5,6,7,8-tetrahydroquinolin-5-yl)-7-((2-methyl-1H-imidazol-1-yl)methyl)-5-(1-methyl-3-(trifluoromethyl)-1H-pyrazol-4-yl)-3,4-dihydroisoquinolin-1(2H)-one], in that order: less than 20 nM and less than 0.02 nM.
For `COc1ccc2c(c1)[C@@H](N1CCc3c(cc(Cn4ccnc4C)cc3-c3cn(C)nc3C(F)(F)F)C1=O)CCO2` [Example 69, (S)-2-(6-Methoxychroman-4-yl)-7-((2-methyl-1H-imidazol-1-yl)methyl)-5-(1-methyl-3-(trifluoromethyl)-1H-pyrazol-4-yl)-3,4-dihydroisoquinolin-1(2H)-one], in that order: less than 20 nM and less than 0.02 nM.
Taken in the same sequence, the figures for `COc1ccc2c(c1)[C@@H](N1CCc3c(cc(Cn4ccnc4)cc3-c3cn(C)nc3C(F)(F)F)C1=O)CCO2` [Example 70, (S)-7-((1H-Imidazol-1-yl)methyl)-2-(6-methoxychroman-4-yl)-5-(1-methyl-3-(trifluoromethyl)-1H-pyrazol-4-yl)-3,4-dihydroisoquinolin-1(2H)-one] were less than 20 nM and less than 0.02 nM.
